Experiments:
[1] = Conversion of a prodrug to an active body thereof in human plasma; type: in vitro ADME; details: 1 μmol/L, 37° C. for 60 minutes, conversion to the compound in Example 3
Description: (§1) The solutions of the example compounds in Table 5 below (50 μmol/L, 50% acetonitrile with 5% DMSO) were added to plasma (245 μL), respectively, such that the final concentrations thereof become 1 μmol/L. After keeping them at 37° C. for 60 minutes, 40 μL of the reaction solutions were taken therefrom, and added to 200 μL of acetonitrile/ethanol (7:3) containing Candesartan (internal standard).
(§2) The concentration of the compound prepared in Example 3 in the plasma resulting from the above reaction was analyzed by LC-MS/MS according to the following method.
(§3) Prominence UFLCXR (Shimadzu Corporation), API5000 (AB Sciex)
(§4) The whole amount was transferred to a filter plate for protein removal and filtered by suction, and the filtrate thereof was diluted 2-fold with water. [LC column] Shim-pack XR-ODSII 2.0 mm ID x 75 mm (Shimadzu Corporation)
(§5) Column temperature: 40° C. Mobile phase: A: 0.2% formic acid in 5 mM ammonium acetate solution; and
(§6) Electrospray, positive mode, multiple reaction monitoring;
(§7) Compound prepared in Example 3: m/z353.0→m/z311.2, DP: 80, CE: 35; and Candesartan (internal standard): m/z309.1→m/z163.0, DP: 71, CE: 21.
(§8) A regression formula was calculated from the peak area ratio of the real sample and the standard sample for the calibration curve in the same matrix (peak area of the compound in Example 3/peak area of Candesartan), and the peak area ratio of the real sample was substituted into the regression formula to calculate the quantitative value. 60 minutes later, the concentration of the compound in Example 3 in the sample was compared, and the conversion rate (%) thereof was calculated using the following formula:
(§9) Conversion rate (%)=Concentration of the compound in Example 3 in the sample after 60 minutes (μmol/L)×100

[2] = Conversion of a prodrug to an active body thereof in mouse plasma; type: in vitro ADME; details: 1 μmol/L, 37° C. for 60 minutes, conversion to the compound in Example 3
Description: as §1, §2, §3, §4, §5, §6, §7, §8, §9

[3] = tested on: colon cancer cell line MC38; experiment: Anti-tumor effect in a subcutaneously colon cancer cell line MC38 tumor-bearing mouse model (Example 17); type: in vivo, mice (C57/BL6); details: 3 mg/kg, administered 7 days after MC38 transplantation, measured until Day 26
Description: Colon cancer cell line MC38 derived from C57/BL6 mice were subcutaneously transplanted to right flank region of syngeneic mice (C57/BL6, female, 6 weeks old (Charles River Japan)) (herein, the day of transplantation was designated as Day 0) to prepare subcutaneously MC38 tumor-bearing mice. Seven days after transplantation, the subcutaneously MC38 tumor-bearing mice were grouped based on tumor volume, and the Vehicle group (n=8) and group to which the compound shown in Example 1 (3 mg/kg, n=6) was administered were set. The changes in tumor volume were continuously measured until 26 days after transplantation (Day 26). The tumor volume was calculated by the following formula:
[Tumor volume (mm^3)]=[major axis (mm)]×[minor axis (mm)]^2×0.5

IDO1 = target: T1, IDO1 (Homo sapiens, UniProt P14902); experiment: Evaluation of IDO1 inhibitory activity (IDO1 Fluorogenic Inhibitor Screening Assay Kit); type: biochemical; details: compound solutions of 0.6, 2, 6, 20, 60 and 200 μmol/L added
T1 construct: purchased BPS Bioscience
Description: The evaluation of IDO1 inhibitory activity was carried out using the IDO1 Fluorogenic Inhibitor Screening Assay Kit (BPS Bioscience). Specifically, IDO1 Fluorogenic Reaction Solution was dissolved, of which 180 μL were added to each well. Then, 10 μL of the compounds at the respective concentrations of 0.6, 2, 6, 20, 60 and 200 μmol/L were added thereto. Further, after adding 10 μL of IDO1 His-Tag solution thereto, and the mixture thereof was incubated at room temperature for 1 hour, and then 20 μL of Fluorescence Solution was added thereto, and the mixture thereof was incubated at 37° C. for 4 hours. After standing them at room temperature for 10 minutes, the fluorescence was measured using a microplate reader (excitation: 400 nm, emission: 510 nm).

[4] = tested on: BTK, KDR, each subtype of PKCα to t, each CDK of CDK2 to 9, FAK, TIE2, RAF1 and BRAF; experiment: Evaluation of inhibitory activity against various kinases (mobility shift, LabChip); type: biochemical; details: 4 μmol/L test substance solution at 4 times the final concentration
Description: 4 μmol/L of the test substance solution (the compound in the present invention produced in Example 1) (at 4 times the final concentration) was prepared by dissolving it to the assay buffer (20 mmol/L HEPES, 0.01% Triton X-100, 1 mmol/L DTT, pH 7.5). 4 μmol/L of the substrate/ATP/metal solution (at 4 times the final concentration) was prepared by dissolving it to the kit buffer (20 mmol/L HEPES, 0.01% Triton X-100, 5 mmol/L DTT, pH 7.5). Various kinase solutions at twice the final concentration were prepared by dissolving them to the assay buffer. 5 μL of the test substance solution, 5 μL of the substrate/ATP/metal solution and 10 μL of the kinase solution were mixed in wells of a polypropylene 384-well plate, and the mixture thereof was reacted at room temperature for 1 to 5 hours. The reaction was stopped by adding 70 μL of the termination buffer (QuickScout Screening Assist MSA; Carna Biosciences). The substrate peptide and phosphorylated peptide in the reaction solution were separated and quantified by LabChip system (Perkin Elmer). The kinase reaction was evaluated based on the product ratio (P/(P+S)) calculated from the peak height (S) of the substrate peptide and the peak height (P) of the phosphorylated peptide. The various kinases used in this evaluation are as follows:
BTK, KDR, each subtype of PKCα to t, each CDK of CDK2 to 9, FAK, TIE2, RAF1 and BRAF.

THP1-Dual-STING KO cells = experiment: Effects on THP1-Dual-STING KO cells (activity of the IRF pathway); type: cell-based; details: STING gene homozygous deficient THP1-Dual cells, about 24 hours
Description: STING gene homozygous deficient THP1-Dual cells (THP1-Dual-STING KO cells (Invivogen) were suspended in RPMI medium to prepare 2×10^6 cells/mL cell suspension. 50 μL of cell suspensions were dispensed into a 96-well plate, to which 50 μL of 6 to 20,000 nM compound solutions were further added, followed by incubation at 37° C. for about 24 hours. 10 μL of the cell suspensions were collected from each well, which were mixed with 50 μL of Quanti-luc (Invivogen), and then the activity of the IRF pathway was measured by detecting luminescence using a microplate reader.

T1 sequence (P14902 whole entry): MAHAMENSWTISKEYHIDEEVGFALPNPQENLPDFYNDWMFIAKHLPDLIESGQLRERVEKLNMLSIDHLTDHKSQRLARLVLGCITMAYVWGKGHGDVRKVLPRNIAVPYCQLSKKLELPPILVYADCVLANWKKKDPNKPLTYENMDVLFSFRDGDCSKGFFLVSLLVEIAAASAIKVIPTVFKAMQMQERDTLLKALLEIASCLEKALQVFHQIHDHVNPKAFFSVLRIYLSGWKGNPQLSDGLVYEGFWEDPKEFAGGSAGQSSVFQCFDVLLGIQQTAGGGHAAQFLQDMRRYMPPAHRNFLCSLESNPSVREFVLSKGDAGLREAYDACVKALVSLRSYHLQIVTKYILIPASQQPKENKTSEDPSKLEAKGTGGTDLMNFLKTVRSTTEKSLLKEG

Plasma conversion rate Human [1]	Plasma conversion rate Mouse [2]	IDO1 inhibitory activity (IDO1)	Structure (SMILES)	tumor growth (tumor volume) [3]	inhibitory activity against various kinases [4]	IRF activating effect (THP1-Dual-STING KO cells)
+ + +	+ + +		CNCC(=O)OCc1cccnc1N(C)C(=O)OCn1cc(-c2cnc(-c3cc(C(C)=O)c(N)cc3F)c3c(N)noc23)cn1.Cl [Example 12(3), 2-((2-((((4-(4-(5-acetyl-4-amino-2-fluorophenyl)-3-aminoisoxazolo[4,5-c]pyridin-7-yl)-1H-pyrazol-1-yl)methoxy)carbonyl)(methyl)amino)pyridin-3-yl)methoxy)-N-methyl-2-oxoethane-1-ammonium chloride]			
+ + +	+ + +		CC(=O)c1cc(-c2ncc(-c3cnn(COC(=O)OC[C@H]4OC(O)[C@H](N)[C@@H](O)[C@@H]4O)c3)c3onc(N)c23)c(F)cc1N.Cl (stereo partly drawn) [Example 12(6), (4-(4-(5-acetyl-4-amino-2-fluorophenyl)-3-aminoisoxazolo[4,5-c]pyridin-7-yl)-1H-pyrazol-1-yl)methyl (((2R,3S,4R,5R)-5-amino-3,4,6-trihydroxytetrahydro-2H-pyran-2-yl)methyl) carbonate hydrochloride]			
+ + +	+ + +		COC(=O)n1cc(-c2cnc(-c3cc(C(C)=O)c(N)cc3F)c3c(N)noc23)cn1 [Example 12(10), methyl 4-(4-(5-acetyl-4-amino-2-fluorophenyl)-3-aminoisoxazolo[4,5-c]pyridin-7-yl)-1H-pyrazole-1-carboxylate]			
+ + +	+ + +		CC(=O)c1cc(-c2ncc(-c3cnn(COP(=O)(O)O)c3)c3onc(N)c23)c(F)cc1N [Example 10(1), (4-(4-(5-acetyl-4-amino-2-fluorophenyl)-3-aminoisoxazolo[4,5-c]pyridin-7-yl)-1H-pyrazol-1-yl)methyl dihydrogen phosphate]			
		no IDO1 inhibitory activity	COC(=O)c1cc(-c2ncc(-c3cn[nH]c3)c3onc(N)c23)c(F)cc1N [Example 1, methyl 2-amino-5-(3-amino-7-(1H-pyrazol-4-yl)isoxazolo[4,5-c]pyridin-4-yl)-4-fluorobenzoate]	almost completely suppressed the tumor growth	no significantly inhibit activities	no IRF activating effect
+ + +	+ + +		CC(=O)c1cc(-c2ncc(-c3cnn(COC(=O)OC[C@H]4OC(O)[C@H](O)[C@@H](O)[C@@H]4O)c3)c3onc(N)c23)c(F)cc1N (stereo partly drawn) [Example 12(5), (4-(4-(5-acetyl-4-amino-2-fluorophenyl)-3-aminoisoxazolo[4,5-c]pyridin-7-yl)-1H-pyrazol-1-yl)methyl (((2R,3S,4S,5R)-3,4,5,6-tetrahydroxytetrahydro-2H-pyran-2-yl)methyl) carbonate]			
+ + +	+ + +		CC(=O)c1cc(-c2ncc(-c3cnn(COC(=O)OCCN4CCOCC4)c3)c3onc(N)c23)c(F)cc1N.Cl [Example 12(4), (4-(4-(5-acetyl-4-amino-2-fluorophenyl)-3-aminoisoxazolo[4,5-c]pyridin-7-yl)-1H-pyrazol-1-yl)methyl (2-morpholinoethyl)carbonate hydrochloride]			
+ + +	+ + +		CNCC(=O)OCc1cccnc1N(C)C(=O)OC(C)n1cc(-c2cnc(-c3cc(C(C)=O)c(N)cc3F)c3c(N)noc23)cn1 (centres unmarked) [Example 12(2), (2-(((1-(4-(4-(5-acetyl-4-amino-2-fluorophenyl)-3-aminoisoxazolo[4,5-c]pyridin-7-yl)-1H-pyrazol-1-yl)ethoxy)carbonyl)(methyl)amino)pyridin-3-yl)methyl methylglycinate]			

Structure (SMILES)	Plasma conversion rate Human [1]	Plasma conversion rate Mouse [2]	IDO1 inhibitory activity (IDO1)	tumor growth (tumor volume) [3]	inhibitory activity against various kinases [4]	IRF activating effect (THP1-Dual-STING KO cells)
CC(=O)c1cc(-c2ncc(-c3cnn(C(=O)NCC(=O)O)c3)c3onc(N)c23)c(F)cc1N [Example 12(9), (4-(4-(5-acetyl-4-amino-2-fluorophenyl)-3-aminoisoxazolo[4,5-c]pyridin-7-yl)-1H-pyrazole-1-carbonyl)glycine]	+ (the conversion rate of each example compound in the table to the compound in Example 3 is less than 25%)	+ (the conversion rate of each example compound in the table to the compound in Example 3 is less than 25%)				
CC(=O)c1cc(-c2ncc(-c3cnn(COP(=O)(O)OCOC(=O)OC(C)C)c3)c3onc(N)c23)c(F)cc1N [Example 12(11), ((((4-(4-(5-acetyl-4-amino-2-fluorophenyl)-3-aminoisoxazolo[4,5-c]pyridin-7-yl)-1H-pyrazol-1-yl)methoxy)(hydroxy)phosphoryl)oxy)methyl isopropyl carbonate]	+ (the conversion rate of each example compound in the table to the compound in Example 3 is less than 25%)	+ (the conversion rate of each example compound in the table to the compound in Example 3 is less than 25%)				
CC(=O)c1cc(-c2ncc(-c3cnn(COC(=O)N(C)c4ncccc4COP(=O)(O)O)c3)c3onc(N)c23)c(F)cc1N [Example 12(1), (4-(5-(5-acetyl-4-amino-2-fluorophenyl)-3-aminoisoxazolo[4,5-c]pyridin-7-yl)-1H-pyrazol-1-yl)methyl methyl(3-((phosphonooxy)methyl)pyridin-2-yl)carbamate]	+ +	+ (the conversion rate of each example compound in the table to the compound in Example 3 is less than 25%)				
CC(=O)c1cc(-c2ncc(-c3cnn(COC(=O)N4CCC(N5CCCCC5)CC4)c3)c3onc(N)c23)c(F)cc1N [Example 12, (4-(4-(5-acetyl-4-amino-2-fluorophenyl)-3-aminoisoxazolo[4,5-c]pyridin-7-yl)-1H-pyrazol-1-yl)methyl [1,4′-bipiperidine]-1′-carboxylate]	+ (the conversion rate of each example compound in the table to the compound in Example 3 is less than 25%)	+ (the conversion rate of each example compound in the table to the compound in Example 3 is less than 25%)				

From patent publication US20230151024A1, “STING AGONISTIC COMPOUND” (ONO PHARMACEUTICAL CO., LTD., priority 2020, published 2023)
